Measurements: ChEMBL document CHEMBL1201862, “PubChem BioAssay data set” (2004)
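Tested at 5 concentrations; 48 h exposure; 96-well plates; endpoints linearly interpolated, else capped at highest concentration. GI50 is the concentration that inhibits growth by half.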 Active and inactive are the calls of the source. No stated cut-off is given here; in the data, active = GI50 up to about 1.1 µM and inactive = higher.

Columns and labels:
Assay in all cases: NCI tumour cell line growth inhibition, 48 h
T47D = system: T47D
HL-60 = system: HL-60
PC-3 = system: PC-3
SK-MEL-28 = system: SK-MEL-28
SR = system: SR
HT-29 = system: HT-29
OVCAR-8 = system: OVCAR-8
SK-MEL-5 = system: SK-MEL-5
HOP-92 = system: HOP-92
CCRF-CEM = system: CCRF-CEM
SNB-75 = system: SNB-75
HCT-15 = system: HCT-15
MCF7 = system: MCF7
UACC-62 = system: UACC-62
EKVX = system: EKVX
MDA-N = system: MDA-N
Hs-578T = system: Hs-578T
UO-31 = system: UO-31
DU-145 = system: DU-145
NCI/ADR-RES = system: NCI/ADR-RES
RXF 393 = system: RXF 393
NCI-H23 = system: NCI-H23
SW-620 = system: SW-620
TK-10 = system: TK-10
HOP-62 = system: HOP-62
BT-549 = system: BT-549
NCI-H522 = system: NCI-H522
HCC 2998 = system: HCC 2998
A498 = system: A498
M14 = system: M14
SN12C = system: SN12C
SF-539 = system: SF-539
NCI-H460 = system: NCI-H460
SK-OV-3 = system: SK-OV-3
SF-295 = system: SF-295
SF-268 = system: SF-268
COLO 205 = system: COLO 205
U-251 = system: U-251
K562 = system: K562
LOX IMVI = system: LOX IMVI
MOLT-4 = system: MOLT-4
MDA-MB-231 = system: MDA-MB-231
UACC-257 = system: UACC-257
IGROV-1 = system: IGROV-1
OVCAR-3 = system: OVCAR-3
OVCAR-5 = system: OVCAR-5
MDA-MB-435 = system: MDA-MB-435
786-0 = system: 786-0
CAKI-1 = system: CAKI-1
ACHN = system: ACHN
RPMI-8226 = system: RPMI-8226
Malme-3M = system: Malme-3M
KM12 = system: KM12
SNB-19 = system: SNB-19
OVCAR-4 = system: OVCAR-4
HCT-116 = system: HCT-116
SK-MEL-2 = system: SK-MEL-2
A549 = system: A549
NCI-H226 = system: NCI-H226

## COC(=O)NC(Cc1ccccc1)NC(C)=O (centres undefined)
T47D
  GI50: > 100 µM (inactive)
HL-60
  GI50: > 100 µM (inactive)
PC-3
  GI50: > 100 µM (inactive)
SK-MEL-28
  GI50: > 100 µM (inactive)
SR
  GI50: > 100 µM (inactive)
HT-29
  GI50: > 100 µM (inactive)
OVCAR-8
  GI50: > 100 µM (inactive)
SK-MEL-5
  GI50: > 100 µM (inactive)
HOP-92
  GI50: > 100 µM (inactive)
CCRF-CEM
  GI50: > 100 µM (inactive)
SNB-75
  GI50: > 100 µM (inactive)
HCT-15
  GI50: > 100 µM
MCF7
  GI50: > 100 µM (inactive)
UACC-62
  GI50: > 100 µM (inactive)
EKVX
  GI50: > 100 µM (inactive)
MDA-N
  GI50: > 100 µM (inactive)
Hs-578T
  GI50: 5.3 µM (inactive)
UO-31
  GI50: > 100 µM (inactive)
DU-145
  GI50: > 100 µM (inactive)
NCI/ADR-RES
  GI50: > 100 µM (inactive)
RXF 393
  GI50: > 100 µM (inactive)
NCI-H23
  GI50: > 100 µM (inactive)
SW-620
  GI50: > 100 µM (inactive)
TK-10
  GI50: > 100 µM (inactive)
HOP-62
  GI50: > 100 µM (inactive)
BT-549
  GI50: > 100 µM (inactive)
NCI-H522
  GI50: > 100 µM (inactive)
HCC 2998
  GI50: > 100 µM (inactive)
A498
  GI50: > 100 µM (inactive)
M14
  GI50: > 100 µM (inactive)
SN12C
  GI50: > 100 µM (inactive)
SF-539
  GI50: > 100 µM (inactive)
NCI-H460
  GI50: > 100 µM (inactive)
SK-OV-3
  GI50: > 100 µM (inactive)
SF-295
  GI50: > 100 µM (inactive)
SF-268
  GI50: > 100 µM (inactive)
COLO 205
  GI50: > 100 µM (inactive)
U-251
  GI50: > 100 µM (inactive)
K562
  GI50: > 100 µM (inactive)
LOX IMVI
  GI50: > 100 µM (inactive)
MOLT-4
  GI50: > 100 µM (inactive)
MDA-MB-231
  GI50: 71 µM (inactive)
UACC-257
  GI50: > 100 µM (inactive)
IGROV-1
  GI50: > 100 µM (inactive)
OVCAR-3
  GI50: > 100 µM (inactive)
OVCAR-5
  GI50: > 100 µM (inactive)
MDA-MB-435
  GI50: > 100 µM (inactive)
786-0
  GI50: > 100 µM (inactive)
CAKI-1
  GI50: > 100 µM (inactive)
ACHN
  GI50: > 100 µM (inactive)
RPMI-8226
  GI50: > 100 µM (inactive)
Malme-3M
  GI50: > 100 µM (inactive)
KM12
  GI50: > 100 µM (inactive)
SNB-19
  GI50: > 100 µM (inactive)
OVCAR-4
  GI50: > 100 µM (inactive)
HCT-116
  GI50: > 100 µM (inactive)
SK-MEL-2
  GI50: > 100 µM (inactive)
A549
  GI50: > 100 µM (inactive)

## Cn1c(-c2ccccc2)cc2c3ccsc3c3ccsc3c21
T47D
  GI50: 6.03 µM (inactive)
HL-60
  GI50: > 100 µM (inactive)
PC-3
  GI50: > 100 µM (inactive)
SK-MEL-28
  GI50: > 100 µM (inactive)
SR
  GI50: 39.1 µM (inactive)
HT-29
  GI50: > 100 µM (inactive)
OVCAR-8
  GI50: > 100 µM (inactive)
SK-MEL-5
  GI50: > 100 µM (inactive)
HOP-92
  GI50: > 100 µM (inactive)
SNB-75
  GI50: > 100 µM (inactive)
HCT-15
  GI50: 29.2 µM
MCF7
  GI50: 4.75 µM (inactive)
UACC-62
  GI50: > 100 µM (inactive)
MDA-N
  GI50: > 100 µM (inactive)
Hs-578T
  GI50: > 100 µM (inactive)
UO-31
  GI50: > 100 µM (inactive)
DU-145
  GI50: > 100 µM (inactive)
NCI/ADR-RES
  GI50: > 100 µM (inactive)
RXF 393
  GI50: > 100 µM (inactive)
NCI-H23
  GI50: > 100 µM (inactive)
SW-620
  GI50: > 100 µM (inactive)
TK-10
  GI50: 21.3 µM (inactive)
HOP-62
  GI50: > 100 µM (inactive)
BT-549
  GI50: > 100 µM (inactive)
NCI-H522
  GI50: > 100 µM (inactive)
HCC 2998
  GI50: > 100 µM (inactive)
A498
  GI50: > 100 µM (inactive)
M14
  GI50: > 100 µM (inactive)
SN12C
  GI50: > 100 µM (inactive)
NCI-H226
  GI50: > 100 µM (inactive)
SF-539
  GI50: > 100 µM (inactive)
NCI-H460
  GI50: 53.1 µM (inactive)
SK-OV-3
  GI50: > 100 µM (inactive)
SF-295
  GI50: > 100 µM (inactive)
SF-268
  GI50: > 100 µM (inactive)
COLO 205
  GI50: > 100 µM (inactive)
U-251
  GI50: > 100 µM (inactive)
LOX IMVI
  GI50: > 100 µM (inactive)
MOLT-4
  GI50: 92.7 µM (inactive)
MDA-MB-231
  GI50: > 100 µM (inactive)
UACC-257
  GI50: > 100 µM (inactive)
IGROV-1
  GI50: > 100 µM (inactive)
OVCAR-3
  GI50: > 100 µM (inactive)
OVCAR-5
  GI50: > 100 µM (inactive)
MDA-MB-435
  GI50: > 100 µM (inactive)
786-0
  GI50: 79.3 µM (inactive)
CAKI-1
  GI50: > 100 µM (inactive)
ACHN
  GI50: > 100 µM (inactive)
RPMI-8226
  GI50: > 100 µM (inactive)
Malme-3M
  GI50: > 100 µM (inactive)
KM12
  GI50: 16.1 µM (inactive)
SNB-19
  GI50: > 100 µM (inactive)
OVCAR-4
  GI50: > 100 µM (inactive)
HCT-116
  GI50: > 100 µM (inactive)
SK-MEL-2
  GI50: > 100 µM (inactive)
A549
  GI50: > 100 µM (inactive)
